This is an account of results in ChEMBL document CHEMBL4680164, “Synthesis and antimycobacterial activity of thiazolidine-2,4-dione based derivatives with halogenbenzohydrazones and pyridinecarbohydrazones substituents” (Eur J Med Chem, 2020).

In brackets after ≈: the same amount, converted by molar mass.

For series [1], the system named is Mycobacterium tuberculosis. The series can be described thus: Antitubercular activity against Mycobacterium tuberculosis H37Ra ATCC 25177 assessed as reduction in microbial growth after 7 days by Alamar blue assay. To be noted: H37Ra ATCC 25177, 168 h, time 7 day. In kind it is functional. (Alamar Blue is a resazurin reagent that responds to reducing activity.)

For series [2], the system named is Vero. The series can be described thus: Cytotoxicity against African green monkey Vero cells incubated for 24 hrs by MTT assay. The series is classed as cell-based. To be noted: Chlorocebus sabaeus. (Tetrazolium assays rely on reduction of a dye to a coloured formazan, in cell work by metabolically active cells.)
Series [3] is described as follows: Selectivity index, ratio of IC50 for cytotoxicity against African green monkey Vero cells to MIC for antimycobacterial activity against Mycobacterium tuberculosis H37Ra ATCC 25177. The series is classed as toxicity, cell-based. To be noted: read-out: Selectivity Index.
Series [4] in a line: Stability of compound in acetonitrile assessed as retention time at 6.05 10^-5mol/L up to 48 hrs by HPLC-DAD method. In kind it is physicochemical.
Series [5] can be described thus: Stability of compound in acetonitrile at 6.05 10^-5mol/L after 48 hrs by HPLC-DAD method. In kind it is physicochemical. To be noted: at 60.5 µM.
Series [6] in a line: Stability of compound in acetonitrile assessed as retention time at 4.52 10^-5mol/L up to 48 hrs by HPLC-DAD method. The series is classed as physicochemical.
Series [7] in a line: Stability of compound in acetonitrile at 4.52 10^-5mol/L after 48 hrs by HPLC-DAD method. The series is classed as physicochemical. To be noted: at 45.2 µM.
Series [8] can be described thus: Stability of compound in acetonitrile assessed as retention time at 4.81 10^-5mol/L up to 48 hrs by HPLC-DAD method. The series is classed as physicochemical.
The nature of series [9]: Stability of compound in acetonitrile at 4.81 10^-5mol/L after 48 hrs by HPLC-DAD method. The series is classed as physicochemical. To be noted: at 48.1 µM.
Series [10] is described as follows: Stability of compound in acetonitrile at 4.76 10^-5mol/L after 48 hrs by HPLC-DAD method. To be noted: at 47.6 µM. In kind it is physicochemical.
A short description of series [11]: Stability of compound in acetonitrile assessed as retention time at 6 10^-5mol/L up to 48 hrs by HPLC-DAD method. In kind it is physicochemical.
The nature of series [12]: Stability of compound in acetonitrile at 6 10^-5mol/L after 48 hrs by HPLC-DAD method. In kind it is physicochemical. To be noted: at 60 µM.
The nature of series [13]: Stability of compound in acetonitrile assessed as retention time at 4.23 10^-5mol/L up to 48 hrs by HPLC-DAD method. The series is classed as physicochemical.
Series [14] can be described thus: Stability of compound in acetonitrile at 4.23 10^-5mol/L after 48 hrs by HPLC-DAD method. The series is classed as physicochemical. To be noted: at 42.3 µM.
Series [15] in a line: Stability of compound in acetonitrile assessed as retention time at 6.48 10^-5mol/L up to 48 hrs by HPLC-DAD method. The series is classed as physicochemical.
The nature of series [16]: Stability of compound in acetonitrile at 6.48 10^-5mol/L after 48 hrs by HPLC-DAD method. In kind it is physicochemical. To be noted: at 64.8 µM.

Take `O=C(CC1SC(=O)NC1=O)Oc1cccc(/C=N/NC(=O)c2cccc(Cl)c2)c1` (stereo not drawn): the MIC in series [1] worked out at 128 µg/mL.

As to `O=C(CC1SC(=O)NC1=O)Oc1ccc(/C=N/NC(=O)c2cccnc2)cc1Br` (stereo not drawn), in series [1], the MIC was 512 µg/mL.

With `O=C(CC1SC(=O)NC1=O)Oc1ccc(/C=N/NC(=O)c2ccc(Cl)cc2Cl)cc1` (stereo not drawn), the MIC in series [1] was 64 µg/mL.

For the compound `O=C(/C=C1/SC(=O)NC1=O)Oc1ccccc1/C=N/NC(=O)c1cccc(Cl)c1`, the MIC in [1] worked out at 64 µg/mL.

Consider `COc1cc(/C=N/NC(=O)c2cccc(Cl)c2)ccc1OC(=O)/C=C1/SC(=O)NC1=O`, for which, in series [1], the minimal inhibitory concentration (MIC) was 128 µg/mL.

As to `O=C(CC1SC(=O)NC1=O)Oc1cccc(/C=N/NC(=O)c2ccc(Cl)cc2Cl)c1` (stereo not drawn), the MIC in series [1] was determined as 128 µg/mL.

Regarding `COc1cc(/C=N/NC(=O)c2ccc(Cl)cc2Cl)ccc1OC(=O)CC1SC(=O)NC1=O` (stereo not drawn), the minimal inhibitory concentration (MIC) in series [1] turned out to be 128 µg/mL.

With `COc1cc(/C=N/NC(=O)c2cccc(Cl)c2)ccc1OC(=O)CC1SC(=O)NC1=O` (stereo not drawn), in [1], the MIC amounted to 128 µg/mL.

On to `O=C(CC1SC(=O)NC1=O)Oc1ccc(/C=N/NC(=O)c2cccnc2)cc1` (stereo not drawn), for which the minimum inhibitory concentration (MIC) in series [1] was 512 µg/mL.

Take `O=C(/C=C1/SC(=O)NC1=O)Oc1ccccc1/C=N/NC(=O)c1ccncc1`: in [1], the MIC was found to be 4 µg/mL. In series [2], this compound had an IC50 of more than 200 µg/mL. The selectivity ratio in [3] was more than 50. Moreover, the Retention_time in [4] is on record as 4.36 min. For the same compound, the Stabilty result in series [5] is on record as “Stable”.

`CCOc1cc(/C=N/NC(=O)c2cccnc2)ccc1OC(=O)CC1SC(=O)NC1=O` (stereo not drawn): the MIC in series [1] is more than 512 µg/mL.

Take `O=C(/C=C1/SC(=O)NC1=O)Oc1ccc(/C=N/NC(=O)c2cccc(Cl)c2)cc1`: the MIC in [1] worked out at 128 µg/mL.

For `CCOc1cc(/C=N/NC(=O)c2ccccn2)ccc1OC(=O)CC1SC(=O)NC1=O` (stereo not drawn), in [1], the minimum inhibitory concentration (MIC) was more than 512 µg/mL.

Consider `O=C(CC1SC(=O)NC1=O)Oc1ccc(/C=N/NC(=O)c2cccc(Cl)c2)cc1` (stereo not drawn), for which, in series [1], the MIC stood at 128 µg/mL.

On to `CCOc1cc(/C=N/NC(=O)c2ccncc2)ccc1OC(=O)CC1SC(=O)NC1=O` (stereo not drawn), for which the MIC in series [1] came out at 1 µg/mL. In [2], this compound displayed an IC50 of 50.9 µg/mL (≈ 115 µM). For the same compound, the selectivity ratio in [3] stood at 50.9. Moreover, the Retention_time in series [6] amounted to 7.64 min. Besides, in series [7], the Stabilty entry is “Stable”.

`O=C(CC1SC(=O)NC1=O)Oc1ccc(/C=N/NC(=O)c2ccncc2)cc1Cl` (stereo not drawn): the MIC in [1] amounted to 1 µg/mL. In [2], the concentration for half-maximal inhibition (IC50) was determined as 31.9 µg/mL (≈ 73.7 µM). Also, the selectivity ratio in series [3] amounted to 31.9. Also, in [8], the Retention_time worked out at 7.59 min. Further, in series [9], the Stabilty entry is “Stable”.

For the compound `O=C(/C=C1/SC(=O)NC1=O)Oc1ccccc1/C=N/NC(=O)c1ccccn1`, in [1], the MIC turned out to be 16 µg/mL.

On to `COc1cc(/C=N/NC(=O)c2ccncc2)ccc1OC(=O)CC1SC(=O)NC1=O` (stereo not drawn), for which the MIC in series [1] is 1 µg/mL. The compound further returned a half-maximal inhibitory concentration (IC50) in series [2] of 203 µg/mL (≈ 475 µM). For the same compound, the selectivity ratio in series [3] was 203. For the same compound, in series [10], the Stabilty entry is recorded as “Stable”.

In the case of `O=C(CC1SC(=O)NC1=O)Oc1ccc(/C=N/NC(=O)c2ccc(Br)cc2)cc1` (stereo not drawn), in series [1], the MIC was determined as 256 µg/mL.

Take `O=C(CC1SC(=O)NC1=O)Oc1ccc(/C=N/NC(=O)c2ccc(Cl)cc2)cc1` (stereo not drawn): in [1], the minimum inhibitory concentration (MIC) is 128 µg/mL.

In the case of `O=C(/C=C1/SC(=O)NC1=O)Oc1cccc(/C=N\NC(=O)c2ccncc2)c1`, the MIC in series [1] amounted to 1 µg/mL. Also, in series [2], the concentration for half-maximal inhibition (IC50) was found to be 143 µg/mL (≈ 361 µM). Further, the selectivity ratio in [3] came to 143. The Retention_time in series [11] was determined as 4.36 min. For the same compound, the Stabilty result in [12] is reported as “Stable”.

Consider `O=C(CC1SC(=O)NC1=O)Oc1ccc(/C=N/NC(=O)c2ccncc2)cc1Br` (stereo not drawn), for which the MIC in series [1] stood at 1 µg/mL. Besides, in series [2], the IC50 was found to be 190 µg/mL (≈ 398 µM). Also, in series [3], the selectivity ratio was 190. In series [13], the Retention_time is on record as 8.8 min. The Stabilty result in series [14] was “Stable”.

For `O=C(CC1SC(=O)NC1=O)Oc1ccc(/C=N/NC(=O)c2cccnc2)cc1Cl` (stereo not drawn), the MIC in series [1] was 512 µg/mL.

In the case of `O=C(CC1SC(=O)NC1=O)Oc1ccc(/C=N/NC(=O)c2ccncc2)cc1` (stereo not drawn), the MIC in [1] is 1 µg/mL. The compound also came in with a half-maximal inhibitory concentration (IC50) in series [2] of 91.7 µg/mL (≈ 230 µM). The selectivity ratio in series [3] is 91.7. Also, in series [15], the Retention_time worked out at 3.48 min. Also, the Stabilty entry in [16] is listed as “Stable”.

As for `O=C(/C=C1/SC(=O)NC1=O)Oc1ccccc1/C=N/NC(=O)c1cccnc1`, in series [1], the MIC is 128 µg/mL.

`CC[C@@H](CO)NCCN[C@@H](CC)CO` [ETHAMBUTOL]: the MIC in series [1] is 2 µg/mL.

On to `NNC(=O)c1ccncc1` [ISONIAZID], for which the MIC in series [1] was found to be 0.25 µg/mL.

For the compound `CO[C@H]1/C=C/O[C@@]2(C)Oc3c(C)c(O)c4c(O)c(c(/C=N/N5CCN(C)CC5)c(O)c4c3C2=O)NC(=O)/C(C)=C\C=C\[C@H](C)[C@H](O)[C@@H](C)[C@@H](O)[C@@H](C)[C@H](OC(C)=O)[C@@H]1C` [RIFAMPIN], in series [1], the minimal inhibitory concentration (MIC) amounted to 0.004 µg/mL. Besides, it took 138 µg/mL (≈ 167 µM) to reach half-maximal inhibition in series [2] (IC50). In addition, in series [3], the selectivity ratio turned out to be 34400.

In the case of `CN[C@@H]1[C@H](O[C@H]2[C@H](O[C@H]3[C@H](O)[C@@H](O)[C@H](N=C(N)N)[C@@H](O)[C@@H]3N=C(N)N)O[C@@H](C)[C@]2(O)C=O)O[C@@H](CO)[C@H](O)[C@H]1O` [STREPTOMYCIN], in series [1], the MIC was determined as 0.5 µg/mL.

What is called MIC is the lowest concentration that inhibits growth of the organism. As usually defined, the IC50 is the point on the concentration scale where inhibition reaches its midpoint.
